Where two headings read alike, the source gives them in different places.
Legend:
THP-1 cells = test: In vitro cellular accumulation; assay type: cell-based; conditions: 24 h, 10 to 75 μg/ml
Experimental: THP-1 cells (TIB-202; ATCC, Manassas, VA; 1 × 10^6 cells/well) were differentiated into macrophages by incubating in 10% fetal bovine serum (FBS; HyClone, Marlborough, MA) supplemented RPMI 1640 medium (HyClone) with 50 ng/ml of phorbol 12-myristate 13-acetate (PMA; Sigma-Aldrich, St. Louis, MO) for 24 h. After a 24 h incubation in fresh medium, cells were treated with RV lipoglycopeptides or comparator drugs at target concentrations in the range of 10 to 75 μg/ml and incubated at 37°C for 24 h. For sample collection, mixtures of cells and medium were transferred into a 1.5-ml microcentrifuge tube followed by centrifugation at 330 × g for 8 min at 4°C. The supernatant was collected to measure the extracellular portion. After washing three times using 1 ml of tris-buffered saline (TBS, 1× solution, pH 7.4, Fisher BioReagents, Waltham, MA), the cell pellet was resuspended in TBS to measure the cellular drug concentration. To confirm mass balance, drug concentrations were also measured from the supernatant and an organic solvent mixture (30% acetonitrile in water) that was used to extract residual drug from the empty wells after the cell mixture was removed. […] Cellular accumulation was expressed as μg of drug per the mass of cell protein measured using a Pierce BCA protein assay kit (Thermo Scientific, Waltham, MA).

[1] = assay type: physicochemical; conditions: pH 8
Experimental: (§1) 40 to the primary metabolite.
(§2) 41 percent degradation is defined as follows:
(§3) [LLLLPPLL ] + [MMPPPPDDMM DDMMDDPPPP ]
(§4) 45 Enzymes studied include :
(§5) 108 Table S1: Enzyme hydrolysis of RV62 and RV94 was measured as a function of time in PBS (pH 8) at 37
(§6) 109 °C. Control samples in the absence of enzyme were included as […]. Samples were analyzed
(§7) 110 by HPLC detecting the parent RV derivative (RV62 or RV94).
(§8) RV Percent RV derivative remaining in HPLC chromatograph, % […]

Protease from Papain = molecular target: T1, Protease from Papain (Carica papaya, UniProt P00784); test: Enzyme hydrolysis; assay type: in vitro ADME; conditions: Papain 5 U/mL
T1 construct: purchased Sigma Aldrich P4762; host or cells: papaya latex
T1 sequence (P00784 134-345): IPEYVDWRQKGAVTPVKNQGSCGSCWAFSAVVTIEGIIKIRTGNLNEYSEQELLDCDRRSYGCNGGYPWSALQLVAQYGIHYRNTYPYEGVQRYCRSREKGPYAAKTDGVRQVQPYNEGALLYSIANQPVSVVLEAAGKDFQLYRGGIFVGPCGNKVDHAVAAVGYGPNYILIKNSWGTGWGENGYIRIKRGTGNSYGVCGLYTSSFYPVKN
Experimental: as §1, §2, §3, §4, §5, §6, §7, §8

[2] = molecular target: T2, Protease from Bacillus Lichenformis (Bacillus licheniformis, UniProt P00780); test: Enzyme hydrolysis; assay type: in vitro ADME; conditions: Bacillus Lichenformis protease 5 U/mL
T2 construct: purchased Sigma Aldrich P5380; host or cells: Bacillus licheniformis
T2 sequence (P00780 106-379): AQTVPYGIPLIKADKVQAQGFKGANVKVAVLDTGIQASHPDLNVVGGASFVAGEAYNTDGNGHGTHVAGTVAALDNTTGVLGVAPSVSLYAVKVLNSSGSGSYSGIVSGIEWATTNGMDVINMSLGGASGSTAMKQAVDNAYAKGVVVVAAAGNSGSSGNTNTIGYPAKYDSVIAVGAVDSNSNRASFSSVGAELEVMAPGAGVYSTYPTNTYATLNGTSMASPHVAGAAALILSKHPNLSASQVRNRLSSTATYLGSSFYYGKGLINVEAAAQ
Experimental: as §1, §2, §3, §4, §5, §6, §7, §8

CCCCCCCCCCNC(=O)CNC1(C)CC(OC2C(Oc3c4cc5cc3Oc3ccc(cc3Cl)C(O)C3NC(=O)C(NC(=O)C5NC(=O)C(CC(N)=O)NC(=O)C(NC(=O)C(CC(C)C)NC)C(O)c5ccc(c(Cl)c5)O4)c4ccc(O)c(c4)-c4c(O)cc(O)cc4C(C(=O)O)NC3=O)OC(CO)C(O)C2O)OC(C)C1O (centres unmarked) [RV94]
Cellular accumulation, fold improvement over telavancin (THP-1 cells): 4 fold
Cellular accumulation, fold improvement over vancomycin (THP-1 cells): 2 fold
Percent RV derivative remaining in HPLC chromatograph ([1]; 0 h): 99.74%
Percent RV derivative remaining in HPLC chromatograph ([1]; 1 h): 99.54%
Percent RV derivative remaining in HPLC chromatograph ([1]; 24 h): 98.89%
Percent RV derivative remaining in HPLC chromatograph (Protease from Papain; 1 h): 99.39%
Percent RV derivative remaining in HPLC chromatograph (Protease from Papain; 24 h): 98.31%
Percent RV derivative remaining in HPLC chromatograph (Protease from Papain; PBS pH 8, 37 °C, 0 h): 99.46%
Percent RV derivative remaining in HPLC chromatograph ([2]; 1 h): 99.47%
Percent RV derivative remaining in HPLC chromatograph ([2]; 24 h): 99.43%
Percent RV derivative remaining in HPLC chromatograph ([2]; PBS pH 8, 37 °C, 0 h): 99.76%

— PMC8373216, “Development and Preclinical Evaluation of New Inhaled Lipoglycopeptides for the Treatment of Persistent Pulmonary Methicillin-Resistant Staphylococcus aureus Infections” (Antimicrobial Agents and Chemotherapy, 2021)
